Patent US20160095843A1, “PYRAZOLOPYRROLIDINE DERIVATIVES AND THEIR USE IN THE TREATMENT OF DISEASE” (NOVARTIS AG, priority 2013, published 2016)

Experiments:
[1] = target: T1, CREBBP (Homo sapiens, UniProt Q92793); experiment: AlphaScreen in-vitro binding assay for CREBBP; details: Biochemical IC50 values, His-CREBBP(1081-1197)
T1 construct: 324 nM His-CREBBP(1081-1197) (custom production at Viva Biotech Ltd.)
Description: AlphaScreen In-Vitro Binding Assay for CREBBP
In order to assess bromodomain selectivity, we set up a binding assay using the bromodomain encoded by the CREBBP gene. […] Reactions were incubated at 30° C. for 35 minutes. Subsequently 4.5 μL per well detection mix (50 mM HEPES, pH 7.5, 0.005% Tween20, 0.02% BSA, 150 mM NaCl, 45 μg/ml Ni-chelate acceptor beads, 45 μg/mL streptavidin-donor beads) (Perkin Elmer)) were added. After 60 minutes incubation at room temperature, plates were measured in a Perkin Elmer EnVision multilabel reader. IC50 values were determined from percent inhibition values at different compound concentrations by non-linear regression analysis.
(§1) Preparation of Compound Dilutions
Test compounds were dissolved in DMSO (10 mM) and transferred into 1.4 mL flat bottom or V-shaped Matrix tubes carrying a unique 2D matrix. The stock solutions were stored at […] if not used immediately. For the test procedure the vials were defrosted and identified by a scanner whereby a working sheet was generated that guided the subsequent working steps. Compound dilutions were made in 96 well plates. This format enabled the assay of maximally 40 individual test compounds at 8 concentrations (single points) including 4 reference compounds, if desired (known BET inhibitors from the prior art, for this and other assays of the type disclosed herein). […]

[2] = target: T2, BRD3 (Homo sapiens, UniProt Q15059); experiment: TR-FRET in-vitro binding assay for BRD3; details: Biochemical IC50 values, His-Brd3(20-477)
T2 construct: 45 nM His-Brd3(20-477) or 45 nM His-Brd4(44-477)
Description: (§2) TR-FRET In-Vitro Binding Assays for BRD2, BRD3, and BRD4:
(§3) All assays were performed in 384-well microtiter plates. Each assay plate contained 8-point serial dilutions for 40 test compounds, plus 16 high- and 16 low controls. Liquid handling and incubation steps were done on an Innovadyne Nanodrop Express equipped with a robotic arm (Thermo CatX, Perkin Elmer/Caliper Twister II) and an incubator (Liconic STX40, Thermo Cytomat 2C450). The assay plates were prepared by addition of 50n1 per well of compound solution in 90% DMSO HummingBird nanodispenser (Zinsser Analytic). […] Reactions were incubated at 30° C. for 35 minutes. […] After 35 minutes incubation at 30° C., plates were measured in a Perkin Elmer EnVision multilabel reader.
as §1
(§4) Test compounds were dissolved in DMSO (10 mM) and transferred into 1.4 mL flat bottom or V-shaped Matrix tubes carrying a unique 2D matrix. The stock solutions were stored at […] if not used immediately. For the test procedure the vials were defrosted and identified by a scanner whereby a working sheet was generated that guided the subsequent working steps. Compound dilutions were made in 96 well plates. This format enabled the assay of maximally 40 individual test compounds at 8 concentrations (single points) including 4 reference compounds, if desired (known BET inhibitors from the prior art, for this and other assays of the type disclosed herein). The dilution protocol included the production of “pre-dilution plates”, “master plates” and “assay plates”.
(§5) Polypropylene 96-well plates were used as pre-dilution plates. […] All dilution steps were done on a HamiltonSTAR robot.
(§6) These plates were used directly for the assay which was performed in a total volume of 13.55 μL.

[3] = target: T3, BRD2 (Homo sapiens, UniProt P25440); experiment: TR-FRET in-vitro binding assay for BRD2; details: Biochemical IC50 values, His-Brd2(60-472)
T3 construct: 45 nM His-Brd2(60-472) or 45 nM His-Brd3(20-477)
Description: as §2, §3, §1, §4, §5, §6

[4] = target: T4, BRD4 (Homo sapiens, UniProt O60885); experiment: TR-FRET in-vitro binding assay for BRD4; details: Biochemical IC50 values, His-Brd4(44-477)
T4 construct: 45 nM His-Brd4(44-477) all proteins produced in-house
Description: as §2, §3, §1, §4, §5, §6

[5] = system: THP-1 cells; experiment: Cell growth inhibition assay (CellTiter-Glo), THP-1; assay type: cell-based; details: Homo sapiens
Outline: (§7)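 Leukemia lines grown in their own media were exposed for 4 days at 37° C. to 3-fold serial dilutions from 10 μM (0.1% DMSO). Viability by CellTiter-Glo ATP luminescence, corrected for background and day-0 plate; IC50 and TGI from four-parameter fit against vehicle (100%) and medium (−100%).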

[6] = system: K-562 cells; experiment: Cell growth inhibition assay (CellTiter-Glo), K-562; assay type: cell-based, human; details: for GI50: Homo sapiens, K562
Outline: as §7

[7] = system: MV-4-11 cells; experiment: Cell growth inhibition assay (CellTiter-Glo), MV-4-11; assay type: cell-based; details: Homo sapiens, MV4-11
Outline: as §7

T2 sequence (Q15059 20-477): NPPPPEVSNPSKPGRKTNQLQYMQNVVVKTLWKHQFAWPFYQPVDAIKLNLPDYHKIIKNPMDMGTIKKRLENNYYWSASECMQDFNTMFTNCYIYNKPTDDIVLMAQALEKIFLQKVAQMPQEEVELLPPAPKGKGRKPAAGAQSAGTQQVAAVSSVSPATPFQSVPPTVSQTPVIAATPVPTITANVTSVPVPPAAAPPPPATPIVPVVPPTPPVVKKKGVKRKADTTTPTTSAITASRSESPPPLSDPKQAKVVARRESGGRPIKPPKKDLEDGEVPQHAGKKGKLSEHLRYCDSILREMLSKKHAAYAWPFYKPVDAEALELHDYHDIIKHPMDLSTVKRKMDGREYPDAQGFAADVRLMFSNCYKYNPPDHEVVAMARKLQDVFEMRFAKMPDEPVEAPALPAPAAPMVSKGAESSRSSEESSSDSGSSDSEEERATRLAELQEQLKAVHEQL
T3 sequence (P25440 60-472): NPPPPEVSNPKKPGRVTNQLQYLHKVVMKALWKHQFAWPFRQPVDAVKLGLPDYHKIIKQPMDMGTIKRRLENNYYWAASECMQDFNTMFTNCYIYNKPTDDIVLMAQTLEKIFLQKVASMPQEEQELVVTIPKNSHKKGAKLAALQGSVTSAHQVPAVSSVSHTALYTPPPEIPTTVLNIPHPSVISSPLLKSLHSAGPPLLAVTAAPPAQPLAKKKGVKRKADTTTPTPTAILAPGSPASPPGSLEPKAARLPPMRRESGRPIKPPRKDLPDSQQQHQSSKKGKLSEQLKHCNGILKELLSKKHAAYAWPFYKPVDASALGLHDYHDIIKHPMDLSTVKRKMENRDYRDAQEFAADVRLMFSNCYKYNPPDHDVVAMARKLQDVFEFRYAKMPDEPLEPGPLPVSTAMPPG
T1 sequence (Q92793 1081-1197): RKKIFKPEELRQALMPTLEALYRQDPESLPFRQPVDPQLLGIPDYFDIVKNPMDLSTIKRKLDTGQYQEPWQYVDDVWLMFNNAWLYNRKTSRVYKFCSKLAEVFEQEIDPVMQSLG

| SMILES | IC50 [1] [µM] | IC50 [2] [µM] | IC50 [3] [µM] | IC50 [4] [µM] | GI50 [5] [nM] | GI50 [6] [nM] | GI50 [7] [nM] | IC (TGI) [6] [nM] |
| --- | --- | --- | --- | --- | --- | --- | --- | --- |
| Cc1nn(C2CC2)c2c1C(c1ccc(Cl)cc1)N(c1cc(C)c(=O)n(C)c1)C2=O (racemic) [Example 23, 4-(4-chlorophenyl)-1-cyclopropyl-5-(1,5-dimethyl-6-oxo-1,6-dihydropyridin-3-yl)-3-methyl-4,5-dihydropyrrolo-[3,4-c]pyrazol-6(1H)-one] | 3.9 | 0.074 | 0.099 |  |  |  |  |  |
| Cc1cc(N2C(=O)c3nn(C)cc3[C@@H]2c2ccc(Cl)cc2)cn(C)c1=O [Example 15, (S)-4-(4-chlorophenyl)-5-(1,5-dimethyl-6-oxo-1,6-dihydropyridin-3-yl)-2-methyl-4,5-dihydropyrrolo[3,4-c]pyrazol-6(2H)-one] |  |  | > 6.7 | > 6.7 |  |  |  |  |
| Cc1cc(N2C(=O)c3nn(C4CC4)c(C)c3[C@@H]2c2ccc(Cl)cc2)cn(C)c1=O [Example 22, (S)-4-(4-chlorophenyl)-2-cyclopropyl-5-(1,5-dimethyl-6-oxo-1,6-dihydropyridin-3-yl)-3-methyl-4,5-dihydropyrrolo[3,4-c]pyrazol-6(2H)-one] |  | > 6.7 |  | > 6.7 |  |  |  |  |
| Cc1nn(C2CC2)c2c1[C@H](c1ccc(Cl)cc1)N(c1cc(Cl)c(=O)n(C)c1)C2=O [Example 50, (S)-5-(5-chloro-1-methyl-6-oxo-1,6-dihydropyridin-3-yl)-4-(4-chlorophenyl)-1-cyclopropyl-3-methyl-4,5-dihydropyrrolo[3,4-c]pyrazol-6(1H)-one] |  | > 6.7 |  | > 6.7 |  |  |  |  |
| COc1ncc(-n2nc3c(c2C(C)C)[C@H](c2ccc(Cl)cc2)N(c2cc(C)c4onc(C)c4c2)C3=O)c(OC)n1 [Example 61, (S)-4-(4-chlorophenyl)-2-(2,4-dimethoxypyrimidin-5-yl)-5-(3,7-dimethylbenzo[d]isoxazol-5-yl)-3-isopropyl-4,5-dihydropyrrolo-[3,4-c]pyrazol-6(2H)-one] |  |  | > 37 |  | 2430 | > 10000 | 948 |  |
| Cc1nn(C2CC2)c2c1[C@H](c1ccc(Cl)cc1)N(c1cc(C)c3nnc(C)n3c1)C2=O [Example 118, (S)-4-(4-chlorophenyl)-1-cyclopropyl-5-(3,8-dimethyl-[1,2,4]triazolo[4,3-a]pyridin-6-yl)-3-methyl-4,5-dihydropyrrolo-[3,4-c]pyrazol-6(1H)-one] | > 37 | > 37 |  |  | 3160 | > 10000 | 1640 | >10000 |
| Cc1n[nH]c2c1C(c1ccc(Cl)cc1F)N(c1cc(C)c3nnc(C)n3c1)C2=O (stereo not shown) [Example 183, 4-(4-chloro-2-fluorophenyl)-5-(3,8-dimethyl-[1,2,4]triazolo[4,3-a]pyridin-6-yl)-3-methyl-4,5-dihydropyrrolo-[3,4-c]pyrazol-6(2H)-one] |  |  |  |  | 135 | 659 | 76.1 |  |
| COc1ncccc1-n1nc(C)c2c1C(=O)N(c1cc(C)c3nnc(C)n3c1)C2c1ccc(Cl)cc1F (stereo not shown) [Example 184, 4-(4-chloro-2-fluorophenyl)-5-(3,8-dimethyl-[1,2,4]triazolo[4,3-a]pyridin-6-yl)-1-(2-methoxypyridin-3-yl)-3-methyl-4,5-dihydropyrrolo-[3,4-c]pyrazol-6(1H)-one] |  |  |  |  | 131 | 394 | 59.6 |  |
| COc1ccccc1-n1nc(C)c2c1C(=O)N(c1cc(C)c3nnc(C)n3c1)C2c1ccc(Cl)cc1F (stereo not shown) [Example 187, 4-(4-chloro-2-fluorophenyl)-5-(3,8-dimethyl-[1,2,4]triazolo[4,3-a]pyridin-6-yl)-1-(2-methoxyphenyl)-3-methyl-4,5-dihydropyrrolo-[3,4-c]pyrazol-6(1H)-one] |  |  |  |  | 168 | 655 | 144 |  |
| Cc1[nH]nc2c1C(c1ccc(Cl)cc1F)N(c1cc(C)c(=O)n(C)c1)C2=O (stereo not shown) [Example 196, 4-(4-chloro-2-fluorophenyl)-5-(1,5-dimethyl-6-oxo-1,6-dihydropyridin-3-yl)-3-methyl-4,5-dihydropyrrolo-[3,4-c]pyrazol-6(2H)-one] |  |  |  |  | 204 | 921 | 144 |  |

Continued by falling GI50 [5], values first:

| IC50 [1] [µM] | IC50 [2] [µM] | IC50 [3] [µM] | IC50 [4] [µM] | GI50 [5] [nM] | GI50 [6] [nM] | GI50 [7] [nM] | SMILES | IC (TGI) [6] [nM] |
| --- | --- | --- | --- | --- | --- | --- | --- | --- |
|  |  |  |  | 73.2 | 245 | 48.6 | COc1ncccc1-n1nc2c(c1C)C(c1ccc(Cl)cc1F)N(c1cc(C)c3nnc(C)n3c1)C2=O (stereo not shown) [Example 194, 4-(4-chloro-2-fluorophenyl)-5-(3,8-dimethyl-[1,2,4]triazolo[4,3-a]pyridin-6-yl)-2-(2-methoxypyridin-3-yl)-3-methyl-4,5-dihydropyrrolo-[3,4-c]pyrazol-6(2H)-one] |  |
|  |  |  |  | 66.2 | 202 | 58 | COc1ncccc1-n1nc2c(c1C)C(c1ccc(F)cc1F)N(c1cc(C)c3nnc(C)n3c1)C2=O (stereo not shown) [Example 193, 4-(2,4-difluorophenyl)-5-(3,8-dimethyl-[1,2,4]triazolo[4,3-a]pyridin-6-yl)-2-(2-methoxypyridin-3-yl)-3-methyl-4,5-dihydropyrrolo-[3,4-c]pyrazol-6(2H)-one] |  |
|  |  |  |  | 61.5 | 208 | 44.1 | CCn1nc2c(c1C)C(c1ccc(Cl)cc1F)N(c1cc(C)c3nnc(C)n3c1)C2=O (stereo not shown) [Example 186, 4-(4-chloro-2-fluorophenyl)-5-(3,8-dimethyl-[1,2,4]triazolo[4,3-a]pyridin-6-yl)-2-ethyl-3-methyl-4,5-dihydropyrrolo-[3,4-c]pyrazol-6(2H)-one] |  |
|  |  |  |  | 36.8 | 136 | 24.2 | CCn1nc(C)c2c1C(=O)N(c1cc(C)c3nnc(C)n3c1)C2c1ccc(Cl)cc1F (stereo not shown) [Example 185, 4-(4-chloro-2-fluorophenyl)-5-(3,8-dimethyl-[1,2,4]triazolo[4,3-a]pyridin-6-yl)-1-ethyl-3-methyl-4,5-dihydropyrrolo-[3,4-c]pyrazol-6(1H)-one] |  |
|  |  |  |  | 30.3 | 127 | 23.9 | Cc1nn(C2CC2)c2c1C(c1ccc(Cl)cc1)N(c1cc(C)c3nnc(C(F)F)n3n1)C2=O (stereo not shown) [Example 195, 4-(4-chlorophenyl)-1-cyclopropyl-5-(3-(difluoromethyl)-8-methyl-[1,2,4]triazolo[4,3-b]pyridazin-6-yl)-3-methyl-4,5-dihydropyrrolo-[3,4-c]pyrazol-6(1H)-one] |  |
|  |  |  |  | 11.3 | 88.5 | 14.1 | Cc1nn(C(C)C)c2c1[C@@H](c1ccc(Cl)cc1F)N(c1cc(C)c3nnc(C)n3c1)C2=O [Example 189, (S)-4-(4-chloro-2-fluorophenyl)-5-(3,8-dimethyl-[1,2,4]triazolo[4,3-a]pyridin-6-yl)-1-isopropyl-3-methyl-4,5-dihydropyrrolo[3,4-c]pyrazol-6(1H)-one] |  |
